# Test results reported in US20250368648A1, “MULTI-CYCLIC IRAK AND FLT3 INHIBITING COMPOUNDS AND USES THEREOF” (CHILDREN'S HOSPITAL MEDICAL CENTER, priority 2022, published 2025).
# Legend:
# FLT3 D835H = target: T1, FLT3 D835H (Homo sapiens, UniProt P36888, D835H); assay: DiscoverX KINOMEscan competition binding, FLT3 D835H; settings: no ATP
# T1 construct: purchased DiscoverX (KINOMEscan); host or cells: E. coli (T7 phage) or HEK-293
# T1 sequence (P36888 27-993 D835H): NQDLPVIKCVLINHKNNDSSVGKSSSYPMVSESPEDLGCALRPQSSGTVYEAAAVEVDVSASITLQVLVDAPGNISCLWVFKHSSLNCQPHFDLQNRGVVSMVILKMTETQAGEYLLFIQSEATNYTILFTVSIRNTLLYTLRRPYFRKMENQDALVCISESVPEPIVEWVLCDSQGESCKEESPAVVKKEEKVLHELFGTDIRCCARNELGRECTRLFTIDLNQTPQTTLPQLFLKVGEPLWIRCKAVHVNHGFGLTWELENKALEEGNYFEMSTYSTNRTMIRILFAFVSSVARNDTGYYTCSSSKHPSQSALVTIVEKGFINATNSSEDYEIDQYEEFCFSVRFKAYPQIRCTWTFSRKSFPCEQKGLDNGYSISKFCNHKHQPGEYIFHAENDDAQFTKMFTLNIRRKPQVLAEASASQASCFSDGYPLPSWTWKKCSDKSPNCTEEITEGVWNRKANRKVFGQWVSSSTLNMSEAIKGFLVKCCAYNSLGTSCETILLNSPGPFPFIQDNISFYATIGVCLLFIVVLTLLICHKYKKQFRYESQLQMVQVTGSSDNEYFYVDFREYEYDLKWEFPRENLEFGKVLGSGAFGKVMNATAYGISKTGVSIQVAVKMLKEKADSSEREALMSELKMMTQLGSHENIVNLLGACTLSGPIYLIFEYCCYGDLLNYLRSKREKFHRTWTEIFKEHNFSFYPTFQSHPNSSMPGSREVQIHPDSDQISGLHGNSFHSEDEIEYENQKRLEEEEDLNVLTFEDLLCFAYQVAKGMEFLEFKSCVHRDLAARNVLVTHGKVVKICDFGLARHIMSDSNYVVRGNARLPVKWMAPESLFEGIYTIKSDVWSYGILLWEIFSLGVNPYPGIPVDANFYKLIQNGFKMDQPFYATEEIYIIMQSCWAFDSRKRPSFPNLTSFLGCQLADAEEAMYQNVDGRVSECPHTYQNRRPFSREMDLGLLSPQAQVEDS
# Excerpt: (§1) Kinase binding data were obtained for various exemplary compounds prepared according to Examples 2-15 using the DiscoverX KINOMEscan® active site-directed competition binding site-directed assay protocol described below. […] As a result, the data report thermodynamic interaction affinities (Kd values), rather than IC50 values that are dependent on ATP concentrations. The assay uses a DNA-tagged version of the protein kinase, and an immobilized ligand bound to a solid support. Compounds that directly or indirectly prevent kinase binding to the immobilized ligand reduce the amount of kinase captured on the solid support, which is detected using an ultra-sensitive qPCR method. Affinity constants reported from the assay have been reported to be independent of the immobilized ligand used that is coupled to the solid support (See supplemental information in Fabian, M. A. et. al., (2005) Nat. […] Wodicka, L. […] Biol. 17, 1241-1249.) Kinase-tagged T7 phage strains were prepared in an E. coli host derived from the BL21 strain. E. coli were grown to log-phase and infected with T7 phage and incubated with shaking at 32° C. until lysis. […] Kds were determined using an 11-point 3-fold compound dilution series with three DMSO control points. […] The kinase concentration in the eluates was measured by qPCR. Binding constants (Kds) were calculated with a standard dose-response curve using the Hill equation. […]
# FLT3 ITD, F691L = target: T2, FLT3 ITD, F691L (Homo sapiens, UniProt P36888, F691L, form not given); assay: DiscoverX KINOMEscan competition binding, FLT3 ITD, F691L; settings: no ATP
# T2 construct: fused on or other part: DNA tag for qPCR read-out (T7 phage fusion, or DNA-tagged kinase made in HEK-293 cells)
# T2 sequence (P36888 1-993 F691L): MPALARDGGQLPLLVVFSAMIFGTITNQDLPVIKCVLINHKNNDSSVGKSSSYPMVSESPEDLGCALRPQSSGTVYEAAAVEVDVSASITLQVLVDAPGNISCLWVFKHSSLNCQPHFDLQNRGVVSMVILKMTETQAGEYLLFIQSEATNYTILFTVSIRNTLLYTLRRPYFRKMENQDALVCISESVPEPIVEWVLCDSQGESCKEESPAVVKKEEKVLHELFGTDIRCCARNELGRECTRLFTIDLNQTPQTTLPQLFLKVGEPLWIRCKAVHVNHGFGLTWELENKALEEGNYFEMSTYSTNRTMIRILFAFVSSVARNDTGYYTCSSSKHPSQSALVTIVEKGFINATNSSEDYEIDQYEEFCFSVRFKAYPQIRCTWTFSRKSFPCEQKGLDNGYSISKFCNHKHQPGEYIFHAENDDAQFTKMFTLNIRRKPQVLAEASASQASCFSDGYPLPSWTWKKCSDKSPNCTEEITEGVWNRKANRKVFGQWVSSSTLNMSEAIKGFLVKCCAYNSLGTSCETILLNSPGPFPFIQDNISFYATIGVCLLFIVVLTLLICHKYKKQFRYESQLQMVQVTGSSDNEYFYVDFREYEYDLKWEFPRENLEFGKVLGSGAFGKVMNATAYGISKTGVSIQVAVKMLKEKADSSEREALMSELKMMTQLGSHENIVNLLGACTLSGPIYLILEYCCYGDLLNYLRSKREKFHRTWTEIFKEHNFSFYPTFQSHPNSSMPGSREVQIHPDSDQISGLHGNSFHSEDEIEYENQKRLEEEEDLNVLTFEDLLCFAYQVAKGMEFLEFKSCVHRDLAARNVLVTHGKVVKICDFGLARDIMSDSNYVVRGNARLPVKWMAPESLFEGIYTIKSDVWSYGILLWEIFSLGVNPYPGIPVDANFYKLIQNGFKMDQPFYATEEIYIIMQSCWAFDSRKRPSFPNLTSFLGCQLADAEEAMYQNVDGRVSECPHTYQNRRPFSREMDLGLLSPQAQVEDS
# Excerpt: as §1
smiles,measurement,setting,value
"COc1cc2ncc(-c3nc(N[C@H]4CNCC[C@@H]4F)c(F)cc3F)n2nc1C1CCC1 [Compound 15a, 6-(6-cyclobutyl-7-methoxyimidazo[1,2-b]pyridazin-3-yl)-3,5-difluoro-N-((3S,4S)-4-fluoropiperidin-3-yl)pyridin-2-amine]",Kd,FLT3 D835H,< 0.17 nM
same,Kd,"FLT3 ITD, F691L",< 0.17 nM
